Calls of active or inactive are those of the source.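 The calls were made as follows: active = blocks protein phosphatase 1 activity with an IC50 half-maximal inhibitory concentration below 10 µM; inactive = IC50 of 10 µM or higher.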
Molecular target: Serine/threonine-protein phosphatase PP1-alpha catalytic subunit (Homo sapiens) (UniProt P62136)
Assay: PP1alpha inhibitors on histone substrate, IC50 – biochemical, radiolabel, dose response, powder samples, late-stage follow-up (AID 652232)
Conditions: purified PP1alpha, 33P-phosphohistone dephosphorylation, scintillation

Sequence of Serine/threonine-protein phosphatase PP1-alpha catalytic subunit (Homo sapiens) (P62136 whole entry, looked up): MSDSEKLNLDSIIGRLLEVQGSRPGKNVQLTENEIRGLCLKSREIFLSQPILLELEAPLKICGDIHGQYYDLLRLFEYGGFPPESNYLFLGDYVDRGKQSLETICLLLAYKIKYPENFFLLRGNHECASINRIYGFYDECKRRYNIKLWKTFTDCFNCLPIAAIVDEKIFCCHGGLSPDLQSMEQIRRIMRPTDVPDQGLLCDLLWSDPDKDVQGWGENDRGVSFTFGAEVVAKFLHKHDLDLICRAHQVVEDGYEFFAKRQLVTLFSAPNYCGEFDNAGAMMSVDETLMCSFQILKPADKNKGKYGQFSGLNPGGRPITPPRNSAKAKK

Structure (SMILES) | IC50
Oc1c(C(c2ccccn2)N2CCN(c3ccccc3F)CC2)cc(Cl)c2cccnc12 (centres undefined) | inactive
Oc1c(C(c2ccccn2)N2CCC(Cc3ccccc3)CC2)cc(Cl)c2cccnc12 (centres undefined) | 27 µM
CC1CCN(C(c2ccccn2)c2cc(Cl)c3cccnc3c2O)CC1 (centres undefined) | inactive
CC(C)(C)OC(=O)N1CCN(C(c2ccccn2)c2cc(Cl)c3cccnc3c2O)CC1 (centres undefined) | 44.2 µM

From PubChem BioAssay AID652232 (The Scripps Research Institute Molecular Screening Center, 2013)
